From patent publication US20130137573A1, “HERBICIDAL COMPOSITIONS COMPRISING, AND METHODS OF USE OF, HERBICIDALLY ACTIVE PYRANDIONES” (priority 2009, published 2013)

Columns and labels:
[1] = system: Echinochloa crus-galli (ECHCG); experiment: Biological Example 1 (Test 125): visual herbicidal damage to flooded ECHCG; assay type: in vivo; details: 200 g/ha fenoxasulfone applied alone, 14 DAA
Method: (§1) Rice seeds, variety IR-64 (an indica type of rice), were sown in seed trays. After 7 days the resulting plants were transplanted as 3 groups of 2 plants, into pots containing a standard sandy loam soil saturated with water replicating swampy conditions. These were grown on for a further 9 days in a glasshouse bay (30/20° C. day/night; 18/6 hours light/dark; 75% humidity). Leptochloa chinensis (LEFCH) and Echinochloa crus-galli (ECHCG) were sown as 2 separate groups of approx 10-20 seeds into pots 13 days prior to application of the test substances, in the same glasshouse conditions as the rice. Therefore, each pot of weeds contained a group of LEFCH and a separate group of ECHCG. All pots of rice and all pots of weeds were flooded to 2-3 cm water depth the day prior to application of the test substances. Growth stages at time of application were as follows: Rice: from 2 leaves on the main stem up to tillering; ECHCG: from 2 leaves on the main stem up to tillering; LEFCH: 2-3 leaves.
Test solutions were prepared by mixing the appropriate aliquots of the test substances in deionised water to give the desired treatment concentration. Most of the test substances were used as formulated products. Specifically, compound A-13 was applied as the EC050 formulation disclosed in Formulation Example 1 herein (EC=emulsifiable concentrate). Reference compound A-4 was applied as the EC050 formulation disclosed in Reference Formulation Example 2 herein. Pyroxasulfone (a comparator co-herbicide) was applied as the SC050 formulation disclosed in Reference Formulation Example 6 herein (SC=Suspension concentrate). Imazosulfuron (a comparator co-herbicide) was applied as a GR0.25 formulation (GR=granule).
The test substances which were pure active ingredient (e.g. propyrisulfuron & fenoxasulfone & compound A-16) (labelled as ‘Technical’ in the following results table), were prepared by dissolving in 10.56% Emulsogen EL™ (castor oil ethoxylate, CAS Registry number 61791-12-6), 42.22% N-methylpyrrolidone and 42.22% dipropylene glycol mono-ethyl ether to give a stock solution containing 5% of the test substance and 95% of (Emulsogen EL™, N-methylpyrrolidone and dipropylene glycol mono-ethyl ether).
Application of the test substances was made by pipetting the required amount of the test solution or the test formulation gently into the flood water of the appropriate pot.
The test plants were then grown on in the same glasshouse conditions, and watered twice daily keeping the flood water at a depth of 2-3 cm.
A visual assessment of the % herbicidal damage was made 7 & 14 days after application […], and the results are presented herein as % visual herbicidal damage where 0=no damage to plants and 100=total kill.

[2] = system: Leptochloa chinensis (LEFCH); experiment: Biological Example 1 (Test 125): visual herbicidal damage to flooded LEFCH; assay type: in vivo; details: 200 g/ha fenoxasulfone applied alone, 14 DAA
Method: as §1
Test solutions were prepared by mixing the appropriate aliquots of the test substances in deionised water to give the desired treatment concentration. Most of the test substances were used as formulated products. Specifically, compound A-13 was applied as the EC050 formulation disclosed in Formulation Example 1 herein (EC=emulsifiable concentrate). […]

SMILES: CCOc1cc(Cl)c(CS(=O)(=O)C2=NOC(C)(C)C2)cc1Cl [fenoxasulfone, reference compound]
- ECHCG control [1]: 65%
- LEFCH control [2]: 70%
